The subject of data set [1] is histone deacetylases. Briefly: Baboon PET/MR imaging with [11C]CN133. Format: in vivo, baboon (Papio anubis). Conditions: for VT (Ichese MAI), Baseline / VT (Logan Plot), Baseline: [11C]CN133 distribution volume, t*=35 min to 80 min. The method, then: A female Papio Anubis baboon, deprived of food for 12 hours prior to the study, was administered intramuscular ketamine (10 mg/kg) and intubated. For maintenance of anesthesia throughout the study, the baboon was provided 1%-4% isoflurane (Forane) in a mixture of medical oxygen and nitrogen. The baboon was catheterized antecubitally for radiotracer injection and a radial arterial line was placed for metabolite analysis. MR-PET images were acquired in a BiographmMR scanner (Siemens, Munich, Germany), and PET compatible 8-channel coil arrays for non-human primate brain imaging with a PET resolution of 5 mm and field of view of 59.4 cm and 25.8 cm (transaxial and axial, respectively). Dynamic PET image acquisition was initiated followed by administration of the radiotracer in a homogenous solution of 10% ethanol and 90% isotonic saline. An […] sequence began after 30 minutes of the baseline scan for anatomic coregistration. […] Both scans were carried out in the same animal on the same day, separated by 2.5 hours. In both scans, 4-5 mCi of [^11C]CN133 was administered to the baboon. Dynamic data from the PET scans were recorded in list mode and corrected for attenuation. Baboon data were reconstructed using a 3D-OSEM method resulting in a full width at half-maximum resolution of 4 mm.
Volumes of interest (VOIs) were drawn manually as spheres in brain regions guided by high resolution MR structural images and summed PET data, with a radius no less than 4 mm. A common VOI mask was applied to both baboon scans. Time-activity curves (TACs) were exported in terms of decay corrected activity per unit volume at specified time points with gradually increasing intervals. The TACs were expressed as percent injected dose per unit volume for analysis.
Arterial samples collected during imaging from the baboon were centrifuged to obtain plasma, which was then removed and placed in an automated gamma counter that was calibrated to the PET scanner. Metabolite analysis was conducted on a custom automated robot fitted with Phenomenex SPE Strata-X 500 mg solid phase extraction cartridges that were primed with ethanol (2 mL) and deionized water (20 mL). Protein precipitation was achieved by addition of plasma (300 μL) to acetonitrile (300 μL), which was centrifuged for 1 minute to obtain protein-free plasma (PFP). 300 μL of PFP/acetonitrile solution was diluted into deionized water (3 mL), loaded onto the C18 cartridge, and removed of polar metabolites with 100% water. Next, a series of extractions were performed using water and acetonitrile in quantities: 95:5, 90:10, 85:15, 80:20, 70:30, 60:40, 30:70 and 100% acetonitrile at a volume of 4 mL. A control experiment was performed before metabolite analysis to determine the retention of the parent compound by injection of a small amount of [^11C]CN133 onto a test series of extraction cartridges. Each sample was counted in a WIZARD2 Automatic Gamma Counter to determine the presence of radiolabeled metabolites.
CN147 blocks ˜40% of [^11C]CN133 binding in NHP whole brain and in cerebellum. Plasma-normalized data were evaluated by volume of interest analysis (VOI) at the whole brain level and at level of the cerebellum. VOI data were then applied to distribution volume (VT) data analysis by two graphical methods using PMOD software, tabulated in Tables A and B below. Logan Plot and Ichese MAI methods were clarified from previous NHP imaging analyses to provide an accurate VT estimate (+/− standard error) from data beginning 35 min after injection of radiotracer (t*=35 min) until the end of the scan (t=80min).

The subject of data set [2] is histone deacetylases. Briefly: Rodent PET/CT imaging with [11C]CN133. Format: in vivo, rats (Sprague Dawley). The note with it: for [11C]CN133 uptake in peripheral organs/regions of rats after treatment: peripheral organs (heart wall, kidney cortex, spleen); for blocking of [11C]CN133 uptake in rat brain after pretreatment: whole brain, 5-minute pretreatment. The protocol: Male Sprague-Dawley rats were utilized in pairs, anesthetized with inhalational isoflurane (Forane) at 3% in a carrier of 2 L/min medical oxygen and maintained at 2% isoflurane for the duration of the scan. The rats were arranged head-to-head in a Triumph Trimodality PET/CT/SPECT scanner (Gamma Medica, Northridge, Calif., USA). Rats were injected standard references or vehicle via a lateral tail vein catheterization at the start of PET acquisition. Dynamic PET acquisition lasted for 60 minutes and was followed by computed tomography (CT) for anatomic coregistration. PET data were reconstructed using a 3D-MLEM method resulting in a full width at half-maximum resolution of 1 mm. Reconstructed images were exported from the scanner in DICOM format along with an anatomic CT for rodent studies. These files were imported to PMOD (PMOD Technologies, Ltd.) and manually coregistered using six degrees of freedom.
Volumes of interest (VOIs) were drawn manually as spheres in brain regions guided by high resolution CT structural images and summed PET data, with a radius no less than 1 mm to minimize partial volume effects. Time-activity curves (TACs) were exported in terms of decay corrected activity per unit volume at specified time points with gradually increasing intervals. The TACs were expressed as percent injected dose per unit volume for analysis.

For another data set, the target named is HDAC1 through HDAC9. The experiment in a line: HDAC inhibition assay, isoform panel. Format: biochemical. The note with it: HDAC1, HDAC2, HDAC3 and HDAC6. An excerpt:
(§1) All histone deacetylases were purchased from BPS Bioscience. […] All the other reagents were purchased from Sigma-Aldrich.

Another data set is described as follows: Log D determination. Format: physicochemical. Conditions: octanol / phosphate buffer pH 7.4; read-out: partition coefficient (Log D). The protocol:
An aliquot (˜50 μL) of the formulated radiotracer was added to a test tube containing 2.5 mL of octanol and 2.5 mL of phosphate buffer solution (pH 7.4). The test tube was mixed by vortex for 2 minutes and then centrifuged for 2 minutes to fully separate the aqueous and organic phase. A sample taken from the octanol layer (0.1 mL) and the aqueous layer (1.0 mL) was saved for radioactivity measurement. An additional aliquot of the octanol layer (2.0 mL) was carefully transferred to a new test tube containing 0.5 mL of octanol and 2.5 mL of phosphate buffer solution (pH 7.4). The previous procedure (vortex mixing, centrifugation, sampling, and transfer to the next test tube) was repeated until six sets of aliquot samples had been prepared. The radioactivity of each sample was measured in a well counter (Perkin-Elmer, Waltham, Mass.). The log D of each set of samples was derived by the following equation: log D=log (decay-corrected radioactivity in octanol sample×10/decay-corrected radioactivity in phosphate buffer sample).

Data set [3] can be described thus: Plasma protein binding assay, baboon plasma. Format: in vitro ADME. The note with it: method derives % unbound, read-out: plasma protein binding (PPB) (converted). The protocol: An aliquot of radiotracer in saline (10 μL) was added to a sample of baboon plasma (0.8 mL, pooled from two separate animals). The mixture was gently mixed by repeated inversion and incubated for 10 minutes at room temperature. Following incubation a small sample (20 μL) was removed to determine the total radioactivity in the plasma sample (AT; AT=Abound+Aunbound). An additional 0.2 mL of the plasma sample was placed in the upper compartment of a Centrifree tube (Amicon, Inc., Beverly, Mass., USA) and then centrifuged for 10 minutes. The upper part of the Centrifree tube was discarded, and an aliquot (20 μL) from the bottom part of the tube was removed to determine the amount of radioactivity that passed through the membrane (Aunbound). Plasma protein binding was derived by the following equation: % unbound=Aunbound×100/AT.

Data set [4] is described as follows: Plasma protein binding assay, human plasma. The data set is classed as in vitro ADME. The note with it: method derives % unbound, read-out: plasma protein binding (PPB) (converted).
The target in the next data set is HDAC4 (Homo sapiens (Human), UniProt P56524). The experiment in a line: HDAC inhibition assay. Conditions: read-out: IC50 HDAC4.
Sequence of HDAC4 (P56524 whole entry): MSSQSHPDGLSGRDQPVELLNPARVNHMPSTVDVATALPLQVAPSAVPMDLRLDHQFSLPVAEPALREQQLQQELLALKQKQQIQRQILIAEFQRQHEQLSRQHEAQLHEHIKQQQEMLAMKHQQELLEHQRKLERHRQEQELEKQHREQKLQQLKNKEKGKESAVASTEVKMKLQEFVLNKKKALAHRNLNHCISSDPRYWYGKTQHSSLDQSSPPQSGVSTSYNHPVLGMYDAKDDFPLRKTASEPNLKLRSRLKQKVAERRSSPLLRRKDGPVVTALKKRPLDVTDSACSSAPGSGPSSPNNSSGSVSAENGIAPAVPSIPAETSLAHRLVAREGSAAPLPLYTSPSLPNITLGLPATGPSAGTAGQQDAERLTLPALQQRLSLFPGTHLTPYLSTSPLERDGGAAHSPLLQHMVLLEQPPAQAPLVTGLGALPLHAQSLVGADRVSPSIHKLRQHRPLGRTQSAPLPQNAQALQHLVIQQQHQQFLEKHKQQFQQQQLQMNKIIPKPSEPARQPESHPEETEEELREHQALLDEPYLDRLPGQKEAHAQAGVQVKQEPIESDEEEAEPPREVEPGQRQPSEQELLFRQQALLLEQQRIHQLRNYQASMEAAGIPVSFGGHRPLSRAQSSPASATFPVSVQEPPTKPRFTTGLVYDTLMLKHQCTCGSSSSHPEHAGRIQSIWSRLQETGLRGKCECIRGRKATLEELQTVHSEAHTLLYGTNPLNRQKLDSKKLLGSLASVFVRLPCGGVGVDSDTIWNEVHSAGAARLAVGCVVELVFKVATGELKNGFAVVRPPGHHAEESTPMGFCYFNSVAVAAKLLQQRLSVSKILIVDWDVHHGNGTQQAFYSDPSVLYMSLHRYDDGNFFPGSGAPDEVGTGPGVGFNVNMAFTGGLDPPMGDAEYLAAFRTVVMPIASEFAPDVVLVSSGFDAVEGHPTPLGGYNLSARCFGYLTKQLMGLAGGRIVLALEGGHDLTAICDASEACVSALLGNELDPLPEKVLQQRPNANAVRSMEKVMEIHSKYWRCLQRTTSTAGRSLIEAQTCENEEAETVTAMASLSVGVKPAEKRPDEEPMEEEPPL
The target in a further data set is HDAC3 (Homo sapiens (Human), UniProt O15379). Briefly: HDAC inhibition assay. The note with it: read-out: IC50 HDAC3.
Sequence of HDAC3 (O15379 whole entry): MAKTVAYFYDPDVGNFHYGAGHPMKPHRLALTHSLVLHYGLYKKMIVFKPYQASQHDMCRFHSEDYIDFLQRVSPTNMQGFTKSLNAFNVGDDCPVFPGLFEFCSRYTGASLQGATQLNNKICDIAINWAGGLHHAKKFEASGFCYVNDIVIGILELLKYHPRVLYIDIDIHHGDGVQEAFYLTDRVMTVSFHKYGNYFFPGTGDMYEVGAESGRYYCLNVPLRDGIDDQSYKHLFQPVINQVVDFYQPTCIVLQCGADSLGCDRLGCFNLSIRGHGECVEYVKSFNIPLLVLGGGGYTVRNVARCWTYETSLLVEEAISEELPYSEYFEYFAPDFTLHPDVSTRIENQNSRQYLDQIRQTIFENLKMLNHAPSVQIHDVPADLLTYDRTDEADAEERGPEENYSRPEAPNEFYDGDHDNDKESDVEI
Sequence of HDAC3 (Q9Y618 395-489 partner): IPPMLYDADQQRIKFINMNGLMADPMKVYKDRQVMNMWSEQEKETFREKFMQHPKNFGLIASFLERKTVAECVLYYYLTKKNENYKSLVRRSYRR
A further data set has as its target HDAC7 (Homo sapiens (Human), UniProt Q8WUI4). Briefly: HDAC inhibition assay. Conditions: read-out: IC50 HDAC7.
The target of another data set is HDAC9 (Homo sapiens (Human), UniProt Q9UKV0). Briefly: HDAC inhibition assay. The note with it: read-out: IC50 HDAC9.
Sequence of HDAC9 (Q9UKV0 whole entry): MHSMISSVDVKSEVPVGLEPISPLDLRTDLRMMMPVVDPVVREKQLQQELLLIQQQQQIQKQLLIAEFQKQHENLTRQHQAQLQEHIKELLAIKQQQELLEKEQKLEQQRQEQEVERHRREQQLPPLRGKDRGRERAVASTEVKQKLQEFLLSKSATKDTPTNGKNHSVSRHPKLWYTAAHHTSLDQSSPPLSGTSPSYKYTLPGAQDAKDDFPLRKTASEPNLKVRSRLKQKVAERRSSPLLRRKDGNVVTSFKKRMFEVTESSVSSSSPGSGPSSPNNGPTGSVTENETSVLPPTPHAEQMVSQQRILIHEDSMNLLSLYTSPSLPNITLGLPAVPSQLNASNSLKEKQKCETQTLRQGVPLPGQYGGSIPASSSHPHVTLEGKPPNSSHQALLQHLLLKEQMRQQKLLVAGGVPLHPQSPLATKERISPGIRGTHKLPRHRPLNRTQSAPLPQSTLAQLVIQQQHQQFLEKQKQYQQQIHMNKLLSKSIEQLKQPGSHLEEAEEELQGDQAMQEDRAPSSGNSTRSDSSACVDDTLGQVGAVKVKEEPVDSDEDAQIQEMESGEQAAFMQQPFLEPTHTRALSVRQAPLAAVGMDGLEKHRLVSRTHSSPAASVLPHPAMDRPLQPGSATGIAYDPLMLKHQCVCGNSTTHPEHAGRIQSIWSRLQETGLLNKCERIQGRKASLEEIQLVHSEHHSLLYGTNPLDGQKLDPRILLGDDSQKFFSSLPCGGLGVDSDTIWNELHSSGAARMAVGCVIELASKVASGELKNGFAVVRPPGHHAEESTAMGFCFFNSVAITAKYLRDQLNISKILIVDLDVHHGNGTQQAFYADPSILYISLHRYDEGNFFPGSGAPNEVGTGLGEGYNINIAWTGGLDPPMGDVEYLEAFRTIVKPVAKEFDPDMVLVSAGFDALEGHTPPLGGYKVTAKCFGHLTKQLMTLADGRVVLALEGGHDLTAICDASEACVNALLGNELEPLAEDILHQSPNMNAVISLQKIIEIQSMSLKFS
The target in the next data set is HDAC5 (Homo sapiens (Human), UniProt Q9UQL6). The experiment in a line: HDAC inhibition assay. Conditions: read-out: IC50 HDAC5.
Sequence of HDAC5 (Q9UQL6 whole entry): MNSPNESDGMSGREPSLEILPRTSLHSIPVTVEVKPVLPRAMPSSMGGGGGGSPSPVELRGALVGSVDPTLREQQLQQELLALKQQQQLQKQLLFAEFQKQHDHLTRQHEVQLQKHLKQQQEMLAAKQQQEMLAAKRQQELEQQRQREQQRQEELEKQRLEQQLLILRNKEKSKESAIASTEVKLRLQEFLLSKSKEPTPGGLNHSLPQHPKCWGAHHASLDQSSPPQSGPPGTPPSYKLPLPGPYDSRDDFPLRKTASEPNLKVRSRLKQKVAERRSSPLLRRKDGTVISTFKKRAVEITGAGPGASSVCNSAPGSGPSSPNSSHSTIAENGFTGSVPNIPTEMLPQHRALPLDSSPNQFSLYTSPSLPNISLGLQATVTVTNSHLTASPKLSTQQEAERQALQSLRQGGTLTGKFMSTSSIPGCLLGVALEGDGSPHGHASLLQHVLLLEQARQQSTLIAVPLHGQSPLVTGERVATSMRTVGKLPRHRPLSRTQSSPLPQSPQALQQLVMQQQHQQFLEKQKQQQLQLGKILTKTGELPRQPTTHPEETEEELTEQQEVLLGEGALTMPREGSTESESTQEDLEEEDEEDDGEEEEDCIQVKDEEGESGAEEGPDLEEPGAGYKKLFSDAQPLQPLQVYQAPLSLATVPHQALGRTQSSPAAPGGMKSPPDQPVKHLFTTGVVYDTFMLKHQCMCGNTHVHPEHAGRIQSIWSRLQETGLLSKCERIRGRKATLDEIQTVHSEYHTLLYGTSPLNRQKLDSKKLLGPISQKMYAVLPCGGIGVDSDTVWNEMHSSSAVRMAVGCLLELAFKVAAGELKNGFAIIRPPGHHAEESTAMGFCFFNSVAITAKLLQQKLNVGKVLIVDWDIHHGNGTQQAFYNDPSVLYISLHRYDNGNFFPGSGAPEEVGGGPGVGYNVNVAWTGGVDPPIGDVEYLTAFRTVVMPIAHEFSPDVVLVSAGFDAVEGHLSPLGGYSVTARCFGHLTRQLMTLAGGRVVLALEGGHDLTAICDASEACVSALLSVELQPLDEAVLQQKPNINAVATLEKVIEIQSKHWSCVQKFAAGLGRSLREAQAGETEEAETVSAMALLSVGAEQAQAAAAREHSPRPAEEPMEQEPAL
The next data set concerns the target HDAC1 (Homo sapiens (Human), UniProt Q13547). The experiment in a line: HDAC inhibition assay. The note with it: read-out: IC50 HDAC1.
For a further data set, the target named is HDAC2 (Homo sapiens (Human), UniProt Q92769). The experiment in a line: HDAC inhibition assay. The data set is classed as biochemical.
Sequence of HDAC2 (Q92769 whole entry): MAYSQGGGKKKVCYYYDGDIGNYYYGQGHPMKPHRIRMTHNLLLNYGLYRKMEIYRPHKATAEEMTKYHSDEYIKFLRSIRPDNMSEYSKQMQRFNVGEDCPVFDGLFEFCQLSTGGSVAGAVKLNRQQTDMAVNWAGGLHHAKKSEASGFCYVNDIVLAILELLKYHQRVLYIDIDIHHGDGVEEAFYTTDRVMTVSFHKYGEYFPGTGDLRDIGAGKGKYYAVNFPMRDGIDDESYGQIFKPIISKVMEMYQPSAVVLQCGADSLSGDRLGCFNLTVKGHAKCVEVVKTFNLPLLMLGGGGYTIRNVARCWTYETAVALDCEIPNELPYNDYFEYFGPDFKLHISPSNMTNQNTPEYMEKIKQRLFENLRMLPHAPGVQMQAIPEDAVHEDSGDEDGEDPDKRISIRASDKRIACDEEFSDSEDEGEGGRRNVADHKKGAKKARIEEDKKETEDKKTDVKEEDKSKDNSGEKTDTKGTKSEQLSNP
Text: as §1

The next data set deals with HDAC8 (Homo sapiens (Human), UniProt Q9BY41). Briefly: HDAC inhibition assay. Format: biochemical.
Sequence of HDAC8 (Q9BY41 whole entry): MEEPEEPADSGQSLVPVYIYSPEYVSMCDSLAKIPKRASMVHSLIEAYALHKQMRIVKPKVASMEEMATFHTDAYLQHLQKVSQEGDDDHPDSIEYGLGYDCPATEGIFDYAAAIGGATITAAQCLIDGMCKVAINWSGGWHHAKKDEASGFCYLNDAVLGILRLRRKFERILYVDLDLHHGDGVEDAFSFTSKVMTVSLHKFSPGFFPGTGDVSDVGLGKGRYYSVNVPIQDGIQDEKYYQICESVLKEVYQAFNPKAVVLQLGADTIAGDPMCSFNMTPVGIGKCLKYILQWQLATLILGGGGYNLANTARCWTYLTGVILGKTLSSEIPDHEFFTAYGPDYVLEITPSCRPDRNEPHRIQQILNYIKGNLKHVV
Text: as §1

Another data set addresses HDAC6 (Homo sapiens (Human), UniProt Q9UBN7). Briefly: HDAC inhibition assay. Format: biochemical.
Text: as §1

“Also recorded” adds a separate entry of the source.

Method for HDAC3: (§2) All histone deacetylases were purchased from BPS Bioscience. […] All the other reagents were purchased from Sigma-Aldrich. Caliper EZ reader II system was used to collect all data. […] Purified HDACs were incubated with 2 μM carboxyfluorescein (FAM)-labeled acetylated or trifluoroacetylated peptide substrate (Broad Substrate A and B respectively) and test compound for 60 minutes at room temperature, in HDAC assay buffer that contained 50 mM HEPES (pH 7.4), 100 mM KCl, 0.01% BSA and 0.001% Tween-20. […] Substrate and product were separated electrophoretically and fluorescence intensity in the substrate and product peaks was determined and analyzed by Labchip EZ Reader. The reactions were performed in duplicate for each sample. IC50 values were automatically calculated by Origin 8 using 4 Parameter Logistic Model. The percent inhibition was plotted against the compound concentration, and the IC50 value was determined from the logistic dose-response curve fitting by Origin 8.0 software.
Method for HDAC4: as §2
Method for HDAC5: as §2
Method for HDAC7: as §2

On to `O=C(CCCCCCC(=O)Nc1ccccc1)NO` [SAHA, suberanilohydroxamic acid, reference compound], for which the “blocking of [11C]CN133 uptake in baboon peripheral organs (time-activity curves)” value with histone deacetylases [1] (heart, spleen, kidney, pancreas, CN133 0.5 mg/kg 10-minute pre-treatment, SAHA infusion 5 mg/kg) was “significant blocking”. For the same compound, in the data set with histone deacetylases [2], the “[11C]CN133 uptake in peripheral organs/regions of rats after treatment” value is on record as “decreased uptake” and the “blocking of [11C]CN133 uptake in rat brain after pretreatment” value (“blocking … after pretreatment” below) is on record as “no significant change; also recorded: did not block the brain uptake”.

For the compound `[11CH3]N(Cc1ccc(/C=C/C(=O)NO)cc1)CC12CC3CCC(CC(C3)C1)C2` [[11C]CN133], the “IC50 / binding towards HDAC isoforms (in words)” value at HDAC1 through HDAC9 is reported as “sub-nanomolar”. Moreover, in “Log D determination”, the logD worked out at 2.03. Besides, the fraction unbound at 10 min was 0.986 in [3] and 0.945 in data set [4]. In addition, the “VT (Ichese MAI), Baseline” value stood at 19.45 ± 7.5 in the data set on histone deacetylases [1] (Cerebellum VOI) and 14.65 ± 8.48 in the data set on histone deacetylases [1] (Whole Brain VOI). Further, the “VT (Logan Plot), Baseline” value in the data set with histone deacetylases [1] (Cerebellum VOI) was 19.28 ± 3.18; in the data set with histone deacetylases [1] (Whole Brain VOI) it was 14.46 ± 3.83. Further, the “time of peak radioactivity in the brain after injection” value with histone deacetylases [1] (baboon) was “about 1 minute”. The “tracer uptake in peripheral organs” value in the data set with histone deacetylases [1] (baboon heart, kidney, pancreas and spleen) is recorded as “good uptake”. For the same compound, the “changes in vital signs” value in the data set on histone deacetylases [1] (baboon, tracer dose or blocking dose) is listed as “did not notice any significant changes”. Also, the BBB penetration result with histone deacetylases [2] (rats, intravenous, 60 minutes scan) was “high BBB penetration”. Besides, the “blocking … after pretreatment” value with histone deacetylases [2] is “dose-dependent blocking”.

As for `CCCCc1nc2cc(/C=C/C(=O)NO)ccc2n1CCN(C)C` [CN101], the IC50 (commonly the concentration needed to halve the response being measured) on HDAC4 is > 10000 nM; on HDAC3 it was 1.9 nM; on HDAC7, > 40000 nM; on HDAC9, > 50000 nM; on HDAC5 it was > 10000 nM; at HDAC1 it was 4.7 nM. Further, the values for the IC50 at HDAC2, at HDAC8 and against HDAC6 were 18 nM, 2370 nM and 8.4 nM, respectively.

Regarding `COc1ccc2c(c1)C(=O)N(CCCCCC(=O)NO)c1ccccc1S2(=O)=O` [CN113], the IC50 on HDAC4 was 9450 nM; on HDAC3, 1.3 nM; on HDAC7, 9650 nM; on HDAC9 it was > 20000 nM; at HDAC5 it was 3850 nM; on HDAC1 it was 0.8 nM. Also, the IC50 at HDAC2 turned out to be 2 nM; against HDAC8, 2840 nM; on HDAC6 it was 1.2 nM.

For `O=C(/C=C/c1ccc(CNCC23CC4CC(CC(C4)C2)C3)c(F)c1)NO` [CN148], the concentration for half-maximal inhibition (IC50) on HDAC4 was > 70000 nM; at HDAC3, 0.5 nM; on HDAC7, > 50000 nM; at HDAC9, > 50000 nM; at HDAC5, 4310 nM; on HDAC1, 0.78 nM. Further, the figures for the IC50 at HDAC2, on HDAC8 and against HDAC6 were 6.4 nM, 4900 nM and 9.5 nM, respectively.

`O=C(NO)c1ccc(C2=Nc3ccccc3Oc3ccccc32)cc1` [CN54]: the half-inhibitory concentration (IC50) on HDAC3 stood at 7.1 nM; on HDAC1, 56.1 nM; against HDAC2, 53.7 nM. For the same compound, the “[11C]CN133 uptake in peripheral organs/regions of rats after treatment” value with histone deacetylases [2] is reported as “decreased uptake”. Further, the “blocking … after pretreatment” value in the data set on histone deacetylases [2] is reported as “blocked; also recorded: activity blocking”.

The values above are taken from patent US10188756B2, “Imaging histone deacetylases with a radiotracer using positron emission tomography” (THE GENERAL HOSPITAL CORPORATION, priority 2013, dated 2019).
